In data set [1] the target is T1, μ-opioid receptor (Mus musculus, UniProt P42866).
T1 construct: FLAG; expressed in transfected cells
Kind of data set: biochemical. Set-up: species or system human.

In data set [2] the target is T2, δ-opioid receptor (Mus musculus, UniProt P32300).
T2 construct: hemagglutinin (HA); expressed in transfected cells
The experiment in a line: biochemical. The arrangement: species or system human.

The target of data set [3] is T3, κ-opioid receptor (Mus musculus, UniProt P33534).
T3 construct: FLAG; expressed in transfected cells
Kind of data set: biochemical. The arrangement: species or system human.

Data set [4] has as its target T1, μ-opioid receptor. The experiment in a line: biochemical. Format: biochemical, human. Conditions: for Emax: read-out: Emax, μ, inhibition of basal [35S]GTPγS binding. On the technique in general: Binding of GTPγS marks nucleotide exchange on a G protein.
Data set [5] concerns the target T2, δ-opioid receptor. Kind of data set: biochemical. Format: biochemical, human. The settings on record: for Emax: read-out: Emax, δ, inhibition of basal [35S]GTPγS binding.
For data set [6], the system named is T4, κ-opioid receptor.
T4 construct: FLAG; expressed in transfected cells
Kind of data set: biochemical. The data set is classed as biochemical, human. The settings on record: read-out: Emax, κ, inhibition of basal [35S]GTPγS binding.
T4 sequence (P33534 whole entry): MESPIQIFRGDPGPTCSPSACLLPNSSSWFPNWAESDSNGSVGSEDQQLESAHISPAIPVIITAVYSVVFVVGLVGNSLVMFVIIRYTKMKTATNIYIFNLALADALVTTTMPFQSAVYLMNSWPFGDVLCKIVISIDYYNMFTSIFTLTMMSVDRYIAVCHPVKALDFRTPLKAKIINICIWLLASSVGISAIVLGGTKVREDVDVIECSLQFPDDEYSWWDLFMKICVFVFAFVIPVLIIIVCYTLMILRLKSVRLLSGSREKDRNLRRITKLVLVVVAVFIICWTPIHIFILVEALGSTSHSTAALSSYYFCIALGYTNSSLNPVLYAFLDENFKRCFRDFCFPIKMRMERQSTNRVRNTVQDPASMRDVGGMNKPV

Data set [7] concerns the target T5, NOP (nociceptin) receptor (Homo sapiens, UniProt P41146).
Data set [8] deals with T5, NOP (nociceptin) receptor. Kind of data set: Inhibition of basal [35S]GTPγS binding (inverse agonism), NOP. The arrangement: FLAG; expressed in transfected cells. Format: biochemical.
A short description of data set [9]: Metabolic stability, human liver S-9.
Description: (§1) A typical assay mixture contained rat or mouse liver microsomes or human liver S-9 (0.4-0.5 mg of protein), 100 μM potassium phosphate buffer (pH 7.4), 40 μM test compound, an NADPH-generating system consisting of 0.5 mM NADP^+, 0.5 mM glucose-6-phosphate, 5 IU/mL glucose-6-phosphate dehydrogenase, 1 mg/mL DETAPAC and 7 mM MgCl2 for a final incubation volume of 0.1 mL^23. […] After centrifugation at 13,000 rpm for 5 min, the organic fraction was collected and the solvent was removed with a stream of argon. The residue was reconstituted in methanol (200 L), centrifuged at 13,000 rpm for 5 min and the supernatant was analyzed by high-performance liquid chromatography with an Axxi-chrom (straight-phase) silica column (4.6 mm×250 mm, 5 m) or with a Supelco (reverse-phase) HS F5 pentafluorophenyl column (4.6 mm×250 mm, 5 m) as described above.
The nature of data set [10]: Metabolic stability, mouse liver microsomes. In general terms: Liver microsomes are a subcellular fraction often used to study metabolism.
Description: as §1
Data set [11] in a line: Metabolism of compound 6 in human liver microsomes. Conditions: going from pH 7.4 to pH 10.
Description: For analysis, 50 μg of 6,6-N-oxide and bromobenzoic acid was used as TLC standards and the UV-vis bands corresponding to these regions were scraped and placed in scintillation vials for counting and quantification. For the HPLC assay, the incubation was stopped by the addition of isopropanol/CH2Cl2 (3/1, v/v), mixed thoroughly and the organic layer was separated by centrifugation. […] The analytes were quantified on the basis of HPLC peak height.
Data set [12] concerns rats trained to self-administer a 10% (w/v) ethanol solution. Kind of data set: Operant oral ethanol self-administration. The data set is classed as in vivo, rat. The settings on record: Rattus norvegicus, po, read-out: ED50 for ethanol self-administration.
Description: Ethanol or saccharin (SACC) self-administration training was conducted in standard operant cages (Coulbourn Instruments, PA) located in sound-attenuated, ventilated cubicles. Two 35-ml syringes dispensed either ethanol/SACC or water through plastic tubing into two stainless steel drinking cups mounted 4 cm above the grid floor and centered on the front panel of each chamber. Each drinking cup held 2 reinforcer deliveries (0.1 ml fluid/reinforcer). Two retractable levers were located 4.5 cm to either side of the drinking cups. Fluid delivery and recording of operant responses were controlled by a microcomputer. Briefly, animals were trained to voluntarily self-administer 10% (w/v) ethanol (n=10) or saccharin (n=6) by the oral route using the saccharin fadeout method^39 and were tested for their response for ethanol or saccharin solution in a two-lever free choice situation. Once baseline ethanol and saccharin intake were achieved (i.e., when responding across 3 consecutive days varied less than 20% and response rates correspond to pharmacologically relevant blood alcohol levels (BALs)), dose response testing for each compound commenced. To allow for a complete dissipation of any carry-over effects, a one week washout period, where rats were re-baselined during daily 30 min operant sessions, occurred between testing of each compound.
Data were collected on-line simultaneously from multiple operant chambers. Results of the operant procedure are reported as mean cumulative number of bar presses for ethanol or saccharin. In general, tests for homogeneity of variance were first performed on the data. […] Data were analyzed using the StatView statistical package on a PC-compatible computer. Mixed-design ANOVAs were used with drug treatments as a within-subjects factor (i.e., repeated measures design for drug treatment). A priori analysis examining individual drug doses to vehicle control dose was conducted using paired t-tests. Significant drug effects were defined as having p<0.05 compared to vehicle-treated rats.
Data set [13] deals with rats self-administering 0.5 mg/kg/injection of cocaine. Kind of data set: Cocaine self-administration, short (ShA) and long access (LgA).
Another data set in a line: Solubility in H2O. The settings on record: salt as labelled.
Data set [14] addresses T3, κ-opioid receptor. The experiment in a line: biochemical. Format: biochemical, human.
In a further data set the target is T6, CYP2B6 (Homo sapiens, UniProt P20813).
T6 sequence (P20813 1-491): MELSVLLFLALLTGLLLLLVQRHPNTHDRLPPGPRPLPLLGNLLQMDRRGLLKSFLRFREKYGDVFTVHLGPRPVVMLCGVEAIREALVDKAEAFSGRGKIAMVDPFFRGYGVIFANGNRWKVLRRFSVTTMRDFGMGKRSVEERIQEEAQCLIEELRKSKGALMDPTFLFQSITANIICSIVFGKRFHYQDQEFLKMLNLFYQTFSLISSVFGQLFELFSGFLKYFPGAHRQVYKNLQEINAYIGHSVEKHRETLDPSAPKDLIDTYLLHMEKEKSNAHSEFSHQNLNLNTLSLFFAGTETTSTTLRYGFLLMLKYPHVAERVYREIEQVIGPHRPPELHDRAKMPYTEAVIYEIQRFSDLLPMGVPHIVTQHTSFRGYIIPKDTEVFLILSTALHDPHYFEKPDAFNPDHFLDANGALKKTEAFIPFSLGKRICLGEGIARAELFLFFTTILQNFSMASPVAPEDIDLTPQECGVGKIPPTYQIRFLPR
Kind of data set: CYP inhibition, CYP2B6 (Vivid Blue substrate). The settings on record: 10 μM test compound; ND = no detectable inhibition.

The next data set concerns the target CYP2D6 (Homo sapiens, UniProt P10635). The experiment in a line: CYP inhibition, CYP2D6 (Vivid Blue substrate). The settings on record: 10 μM test compound; ND = no detectable inhibition.
In another data set the target is CYP2C19 (Homo sapiens, UniProt P33261). The experiment in a line: CYP inhibition, CYP2C19 (Vivid Blue substrate). Conditions: 10 μM test compound; ND = no detectable inhibition.
For a further data set, the target named is CYP2C9 (Homo sapiens, UniProt P11712). The experiment in a line: CYP inhibition, CYP2C9 (diclofenac hydroxylase). Conditions: 10 μM test compound; ND = no detectable inhibition.
Another data set addresses CYP3A4 (Homo sapiens, UniProt P08684). Kind of data set: CYP inhibition, CYP3A4 (testosterone 6-hydroxylation). Conditions: 10 μM test compound; ND = no detectable inhibition.
Data set [15] concerns the target T5, NOP (nociceptin) receptor. The experiment in a line: Stimulation of [35S]GTPγS binding (agonist activity), NOP. The settings on record: read-out: EC50, NOP, stimulation of [35S]GTPγS binding; cells printed in μM.
The mark [16] stands for this setting: read-out: Emax, μ, stimulation of [35S]GTPγS binding.
The mark [17] stands for this setting: read-out: Emax, δ, stimulation of [35S]GTPγS binding.
The mark [18] stands for this setting: percentage of basal [35S]GTPγS binding stimulation.
[19] abbreviates: 40 μM test compound, NADPH-generating system, NC = No Change.

Like-named read-outs stand apart in the source and are kept apart here.

T2 sequence (P32300 whole entry): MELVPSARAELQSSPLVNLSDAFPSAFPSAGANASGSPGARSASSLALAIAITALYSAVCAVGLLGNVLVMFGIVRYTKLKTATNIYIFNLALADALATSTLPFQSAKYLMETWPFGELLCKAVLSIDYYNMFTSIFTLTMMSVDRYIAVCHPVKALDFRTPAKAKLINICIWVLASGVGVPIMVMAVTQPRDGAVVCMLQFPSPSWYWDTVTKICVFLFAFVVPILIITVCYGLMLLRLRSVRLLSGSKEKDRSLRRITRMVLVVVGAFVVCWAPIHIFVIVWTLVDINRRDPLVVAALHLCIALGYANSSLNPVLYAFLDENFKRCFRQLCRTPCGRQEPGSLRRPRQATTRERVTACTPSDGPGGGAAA
T3 sequence (P33534 whole entry): as the sequence (P33534 whole entry) above
T1 sequence (P42866 whole entry): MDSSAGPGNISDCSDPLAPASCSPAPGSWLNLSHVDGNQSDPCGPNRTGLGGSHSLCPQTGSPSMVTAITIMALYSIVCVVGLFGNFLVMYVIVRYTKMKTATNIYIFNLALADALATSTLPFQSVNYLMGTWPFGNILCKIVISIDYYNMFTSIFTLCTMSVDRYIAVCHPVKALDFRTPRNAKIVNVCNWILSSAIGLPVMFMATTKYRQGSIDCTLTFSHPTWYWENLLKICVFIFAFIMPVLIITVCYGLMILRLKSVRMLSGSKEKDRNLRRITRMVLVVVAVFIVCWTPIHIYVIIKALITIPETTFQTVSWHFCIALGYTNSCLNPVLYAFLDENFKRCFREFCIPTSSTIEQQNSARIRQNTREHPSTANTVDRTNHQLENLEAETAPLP
T5 sequence (P41146 whole entry): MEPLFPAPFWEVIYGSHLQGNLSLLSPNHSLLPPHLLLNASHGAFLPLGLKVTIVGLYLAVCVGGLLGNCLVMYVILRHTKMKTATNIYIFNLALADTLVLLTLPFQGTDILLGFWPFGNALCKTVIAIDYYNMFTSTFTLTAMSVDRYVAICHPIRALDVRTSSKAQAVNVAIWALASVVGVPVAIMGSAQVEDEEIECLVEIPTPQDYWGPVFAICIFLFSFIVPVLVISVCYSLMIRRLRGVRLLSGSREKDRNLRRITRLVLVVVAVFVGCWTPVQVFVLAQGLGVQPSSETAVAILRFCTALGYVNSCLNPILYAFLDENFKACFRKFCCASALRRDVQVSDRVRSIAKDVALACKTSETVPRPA
CYP3A4, sequence (P08684 whole entry): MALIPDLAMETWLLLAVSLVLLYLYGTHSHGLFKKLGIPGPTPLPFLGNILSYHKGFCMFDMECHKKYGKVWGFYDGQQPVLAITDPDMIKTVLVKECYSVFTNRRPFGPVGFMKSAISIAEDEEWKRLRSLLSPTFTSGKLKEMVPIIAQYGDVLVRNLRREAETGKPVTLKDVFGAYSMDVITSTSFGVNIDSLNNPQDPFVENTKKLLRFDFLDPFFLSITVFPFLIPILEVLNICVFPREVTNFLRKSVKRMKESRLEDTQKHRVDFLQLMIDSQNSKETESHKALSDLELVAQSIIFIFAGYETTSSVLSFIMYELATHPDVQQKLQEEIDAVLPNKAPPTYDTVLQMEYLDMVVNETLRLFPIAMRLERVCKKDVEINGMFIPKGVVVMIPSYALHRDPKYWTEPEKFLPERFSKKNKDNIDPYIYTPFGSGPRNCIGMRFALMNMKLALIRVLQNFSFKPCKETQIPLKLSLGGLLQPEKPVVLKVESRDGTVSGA
CYP2D6, sequence (P10635 whole entry): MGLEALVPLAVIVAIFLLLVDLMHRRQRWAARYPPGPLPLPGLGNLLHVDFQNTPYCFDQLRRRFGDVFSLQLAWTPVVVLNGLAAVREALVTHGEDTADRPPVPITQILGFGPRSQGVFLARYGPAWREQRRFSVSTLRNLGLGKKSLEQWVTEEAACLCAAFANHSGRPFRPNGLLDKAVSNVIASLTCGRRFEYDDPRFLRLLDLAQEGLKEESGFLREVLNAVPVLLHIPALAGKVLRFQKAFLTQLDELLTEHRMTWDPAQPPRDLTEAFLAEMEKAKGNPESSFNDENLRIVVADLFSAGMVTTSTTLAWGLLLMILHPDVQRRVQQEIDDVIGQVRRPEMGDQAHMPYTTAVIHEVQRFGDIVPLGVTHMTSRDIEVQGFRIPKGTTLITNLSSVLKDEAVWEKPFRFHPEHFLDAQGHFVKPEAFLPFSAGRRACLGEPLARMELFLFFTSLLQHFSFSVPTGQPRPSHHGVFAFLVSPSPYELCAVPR
CYP2C19, sequence (P33261 whole entry): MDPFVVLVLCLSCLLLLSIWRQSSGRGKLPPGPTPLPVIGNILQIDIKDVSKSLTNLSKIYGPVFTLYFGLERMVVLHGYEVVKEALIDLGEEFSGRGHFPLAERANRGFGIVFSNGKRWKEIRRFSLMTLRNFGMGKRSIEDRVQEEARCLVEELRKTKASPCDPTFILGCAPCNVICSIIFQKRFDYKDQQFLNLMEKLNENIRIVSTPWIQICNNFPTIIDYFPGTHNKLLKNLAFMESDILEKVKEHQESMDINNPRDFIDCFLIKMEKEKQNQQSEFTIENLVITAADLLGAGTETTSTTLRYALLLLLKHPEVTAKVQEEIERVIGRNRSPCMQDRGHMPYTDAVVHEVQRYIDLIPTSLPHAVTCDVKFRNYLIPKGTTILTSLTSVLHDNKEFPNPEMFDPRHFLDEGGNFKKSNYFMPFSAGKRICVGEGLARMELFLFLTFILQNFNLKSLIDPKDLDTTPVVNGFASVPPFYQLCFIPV
CYP2C9, sequence (P11712 whole entry): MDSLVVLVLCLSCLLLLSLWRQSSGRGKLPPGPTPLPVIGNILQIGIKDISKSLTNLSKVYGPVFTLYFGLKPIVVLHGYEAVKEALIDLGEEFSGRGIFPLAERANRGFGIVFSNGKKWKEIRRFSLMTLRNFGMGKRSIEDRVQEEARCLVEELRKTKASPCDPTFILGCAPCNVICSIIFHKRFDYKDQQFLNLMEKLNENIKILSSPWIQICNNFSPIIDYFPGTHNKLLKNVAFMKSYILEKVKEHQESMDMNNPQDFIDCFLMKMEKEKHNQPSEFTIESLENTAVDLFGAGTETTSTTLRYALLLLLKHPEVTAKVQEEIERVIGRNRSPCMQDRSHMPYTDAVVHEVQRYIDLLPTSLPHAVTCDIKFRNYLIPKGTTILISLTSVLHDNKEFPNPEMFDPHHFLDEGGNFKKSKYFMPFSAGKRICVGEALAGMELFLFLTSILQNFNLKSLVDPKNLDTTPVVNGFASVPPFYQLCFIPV

As usually defined, the Emax is the size of the effect at its maximum, as opposed to the concentration needed. Broadly, the EC50 is the concentration needed to bring the measured effect to its halfway point. For orientation: half-life means how long it takes for the measured level to halve. Higher therefore signals slow loss. For the molecule `O=C(N[C@@H]1CC[C@@]2(O)[C@H]3Cc4ccc(O)c5c4[C@@]2(CCN3CC2CC2)[C@H]1O5)c1ccc(Br)cc1` [Compound 6, 6-β-(4′-Bromo)benzamido-14-hydroxy-17-(cyclopropylmethyl) nordesmorphine], the “Emax, μ, stimulation of [35S]GTPγS binding” value at μ-opioid receptor [1] was determined as 38 ± 4.3%. Also, the maximum response (Emax) was 28 to 63% on μ-opioid receptor [1] (setting [16]); 28 to 63% at δ-opioid receptor [2] (setting [17]); 28 to 63% at κ-opioid receptor [3] (read-out: Emax, κ, stimulation of [35S]GTPγS binding); 0% at μ-opioid receptor [4]; 35 ± 4.8% at δ-opioid receptor [5]; 0% with κ-opioid receptor [6]. Besides, the maximum response (Emax) in data set [7] amounted to 0%; in [8] (read-out: Emax, NOP, inhibition of basal [35S]GTPγS binding), 92 ± 7.4%. Moreover, the “Emax, δ, stimulation of [35S]GTPγS binding” value on δ-opioid receptor [2] stood at 46 ± 3.7%. Further, the “Emax, κ, stimulation of [35S]GTPγS binding” value at κ-opioid receptor [3] is on record as 42 ± 3.9%. This molecule registered an EC50 in [8] of 94 ± 33 nM. The half-life at 40 μM is above 1.87 h in [9] (human, s9, pH 7.4) and above 1.87 h in data set [10] (mouse, microsomes, pH 7.4). Also, in [11], the “Rate of N-oxide formation, dependence on pH” value is “the rate doubled”.

The term melting point denotes the temperature of the solid-liquid transition. Molecule `O=C(N[C@@H]1CC[C@@]2(O)[C@H]3Cc4ccc(O)c5c4[C@@]2(CCN3CC2CC2)[C@H]1O5)c1ccc(Cl)cc1` [Compound 10, 6-β-(4′-Chloro)benzamido-14-hydroxy-17-(cyclopropylmethyl)nordesmorphine] registered a melting point of 188.8 °C. Moreover, the Emax at μ-opioid receptor [1] (setting [16]) is 46 ± 3.8%. For the same molecule, at μ-opioid receptor [1] (read-out: Emax, μ, stimulation of [35S]GTPγS binding, percentage of basal [35S]GTPγS binding stimulation), the Emax was in the range of 28 to 63%. Also, the maximum response (Emax) at δ-opioid receptor [2] (setting [17]) was determined as 22 ± 1.7%. Moreover, the Emax on δ-opioid receptor [2] (read-out: Emax, δ, stimulation of [35S]GTPγS binding, percentage of basal [35S]GTPγS binding stimulation) fell in the range of 28 to 63%. On κ-opioid receptor [3] (read-out: Emax, κ, stimulation of [35S]GTPγS binding, percentage of basal [35S]GTPγS binding stimulation), the Emax is 28 to 63%. Besides, on μ-opioid receptor [4], the maximum response (Emax) was determined as 0%. In addition, the maximal response (Emax) at δ-opioid receptor [5] was 0%. In the data set with κ-opioid receptor [6], the maximal response (Emax) is 0%. In data set [8], the response was half-maximal at 88 ± 19 nM (EC50).

Turning to `O=C1CC[C@@]2(O)[C@H]3Cc4ccc(O)c5c4[C@@]2(CCN3CC2CC2)[C@H]1O5` [Compound 1a, naltrexone, reference compound], the ED50 in data set [12] was around 0.5 mg/kg. Further, the “Cocaine intake, schedule not stated” value in data set [13] is listed as “decreased cocaine intake in both groups”.

On to `O=C(N[C@@H]1CC[C@@]2(O)[C@H]3Cc4ccc(O)c5c4[C@@]2(CCN3CC2CC2)[C@H]1O5)c1ccc(Br)cc1.O=C(O)C(=O)O` [Compound 6-oxalate, 6-β-(4′-Bromo)benzamido-14-hydroxy-17-(cyclopropylmethyl) nordesmorphine-oxalate], for which, in “Solubility in H2O”, the “Solubility in H2O” value is 200 µg/mL. Moreover, in data set [13], the “Cocaine intake, schedule not stated” value is listed as “decreased cocaine intake in both groups” and the “Cocaine self-administration under a PR schedule” value is “dose-dependently decreased cocaine self-administration”.

In the case of `O=C(N[C@@H]1CC[C@@]2(O)[C@H]3Cc4ccc(O)c5c4[C@@]2(CCN3CC2CC2)[C@H]1O5)c1ccc(Cl)c(Cl)c1` [Compound 9, 6-β-(3′,4′-Dichloro)benzamido-14-hydroxy-17-(cyclopropylmethyl)nordesmorphine], at μ-opioid receptor [1] (setting [18]), the “Emax, μ, stimulation of [35S]GTPγS binding” value came out at 85 ± 7.4%. The “Emax, δ, stimulation of [35S]GTPγS binding” value on δ-opioid receptor [2] (setting [18]) was 85 ± 35%. Besides, on κ-opioid receptor [3] (setting [18]), the “Emax, κ, stimulation of [35S]GTPγS binding” value was determined as 80 ± 7.4%. Also, at μ-opioid receptor [4], the “Emax, μ, inhibition of basal [35S]GTPγS binding” value came out at 0%. Further, the “Emax, δ, inhibition of basal [35S]GTPγS binding” value on δ-opioid receptor [5] came out at 0%. For the same molecule, the “Emax, κ, inhibition of basal [35S]GTPγS binding” value at κ-opioid receptor [14] is recorded as 0%. In addition, in [7], the Emax amounted to 0%. In [8], the EC50 came out at 0.1 nM and the “Emax, NOP, inhibition of basal [35S]GTPγS binding” value turned out to be 87 ± 6.9%. Further, the “Percent Inhibition CYP2B6” value at CYP2B6 was found to be 5%. At CYP2D6, the “Percent Inhibition CYP2D6” value was 10%. The “Percent Inhibition CYP2C19” value at CYP2C19 is given as 39%. In addition, the “Percent Inhibition CYP2C9” value on CYP2C9 is reported as 7%. Also, the “Percent Inhibition CYP3A4” value at CYP3A4 is reported as 11%. The EC50 in data set [15] was above 10 µM.

The molecule `Cc1ccc(C(=O)N[C@@H]2CC[C@@]3(O)[C@H]4Cc5ccc(O)c6c5[C@@]3(CCN4CC3CC3)[C@H]2O6)cc1` [Compound 4, 6-β-(4′-Methyl)benzamido-14-hydroxy-17-(cyclopropylmethyl) nordesmorphine] yielded a melting point of 207.6 °C. Besides, the Emax on μ-opioid receptor [4] amounted to 3 ± 2.4%. Besides, the Emax in [7] was 0%. Further, the “Half Life, Human liver preparation” value in [9] (setting [19]) is on record as “remained unchanged”. Further, in [10] (setting [19]), the “Half Life, Mouse liver preparation” value is “remained unchanged”.

With `Oc1ccc2c3c1O[C@H]1c4[nH]c5c(c4C[C@@]4(O)[C@@H](C2)N(CC2CC2)CC[C@]314)C[C@@]1(O)[C@H]2Cc3ccc(O)c4c3[C@@]1(CCN2CC1CC1)[C@H]5O4` [Nor-BNI, reference compound], the “Cocaine self-administration under a PR schedule” value in data set [13] was “decreased cocaine intake in LgA rats”.

These data come from US8778958B2, “Synthesis of metabolically stable agents for alcohol and drug abuse” (priority 2008, dated 2014).
